In patent publication EP4640678A1, “NOVEL OXO-PYRIDINE COMPOUND, PREPARATION METHOD THEREFOR, AND USE THEREOF” (Chengdu Shibeikang Biomedical Technology Co., Ltd., priority 2022, dated 2024):

Experiments:
[1] = system: human plasma; assay: determination of in-vitro anticoagulant effect in human plasma (APTT); assay type: biochemical; conditions: for APTT prolongation rate (%): healthy human plasma, 37°C for 3 min; for EC150: estimated from the APTT test results in human plasma
Procedure: After centrifugation, the plasma sample was pipetted and frozen (-80°C) for later use.
A proper amount of a compound was weighed and prepared into a 10-100 mM stock solution using 100% of DMSO (the specific concentration of the stock solution was determined based on the properties of the compound); and then working solutions with various concentrations (specifically: 1 µM, 3 µM and 10 µM, respectively) were prepared from the stock solution using the healthy human plasma as a solution and thoroughly mixed. After incubation at 37°C for 3 min, the sample was placed on an instrument (model: CS-2000I) to determine APTT.
GraphPad Prism software was used for analysis to calculate the APTT prolongation rate at each concentration.

[2] = biological target: human FXla (Homo sapiens, UniProt P03951); assay: Activity assay of coagulation factor FXla inhibitor (S-2366 substrate, OD405nm); assay type: biochemical; conditions: 5 concentrations 200 nM to 0.32 nM, 0.8 nM (2X) human FXla working solution
Text: X: log value of compound concentration; Y: inhibition rate (%).

[3] = Study of pharmacokinetics in rats; assay type: in vivo; conditions: rat, po; male SD rats, intragastrical gavage, 30 mg/kg, plasma
Procedure: Each group was administered via intragastrical gavage at a dose of 30 mg/kg.
About 0.5 mL of blood was collected, placed in an EDTA-K2 tube, centrifuged to separate plasma, and stored at -80°C. The drug plasma concentration was measured using a liquid chromatography-tandem mass spectrometry analysis system (LC-MS/MS), and pharmacokinetic parameters, such as AUC0-t, Cmax, Tmax and t1/2, were calculated based on the drug plasma concentration data using DAS 2.0 software.

[4] = Effect of continuous in-vivo administration on general condition and food intake of rats; conditions: 500 mg/kg PO once a day for 14 days, within 24 hours after the last administration; for food intake compared with the blank group: SD rats
Text: Each group had 10 rats, equally distributed by gender. The rats received drug administrations via oral gavage once a day for 14 consecutive days, following the administration regimen outlined in the table below. The blank group was given an equal volume of a vehicle. […] Table 4 Continuous administration regimen

human FXla, sequence (P03951 388-625 limits assumed): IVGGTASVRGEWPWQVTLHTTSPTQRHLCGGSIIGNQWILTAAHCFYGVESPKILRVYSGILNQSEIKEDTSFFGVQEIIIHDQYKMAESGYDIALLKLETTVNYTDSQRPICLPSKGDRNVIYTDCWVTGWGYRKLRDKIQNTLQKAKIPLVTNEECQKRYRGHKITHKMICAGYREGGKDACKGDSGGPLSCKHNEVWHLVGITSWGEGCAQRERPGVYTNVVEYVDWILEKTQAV
human FXla, sequence (P03951 19-387 partner limits assumed): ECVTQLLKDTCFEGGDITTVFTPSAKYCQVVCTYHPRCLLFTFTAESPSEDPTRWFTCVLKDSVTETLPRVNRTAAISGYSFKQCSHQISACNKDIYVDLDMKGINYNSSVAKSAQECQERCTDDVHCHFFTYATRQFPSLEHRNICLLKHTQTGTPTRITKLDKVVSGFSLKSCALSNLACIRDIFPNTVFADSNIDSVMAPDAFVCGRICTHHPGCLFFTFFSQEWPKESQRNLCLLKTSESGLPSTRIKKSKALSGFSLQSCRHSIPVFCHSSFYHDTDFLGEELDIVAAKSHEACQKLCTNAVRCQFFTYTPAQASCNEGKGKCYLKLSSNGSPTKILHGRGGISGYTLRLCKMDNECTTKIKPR

Row | SMILES | APTT prolongation rate (%) ([1]; 3 µM) | APTT prolongation rate (%) ([1]; 10 µM) | EC150 [1] | IC50 [2] | AUC(0-t) [3] | Cmax [3] | Tmax [3] | half-life [3] | Food intake (g, mean±SD) [4] | food intake compared with the blank group [4]
1 | CC[C@@H](C(=O)Nc1ccc(C(=O)O)c(Cl)c1)n1cc(OC)c(-c2cc(Cl)ccc2-n2cc(C(F)(F)F)nn2)cc1=O [Compound 2, (S)-2-chloro-4-(2-(4-(5-chloro-2-(4-(trifluoromethyl)-1H-1,2,3-triazol-1-yl)phenyl)-5-methoxy-2-oxopyridin-1(2H)-yl)butanamido)benzoic acid] | 88.9% | 124.8% | less than 1 µM | 0.91 nM | 85.9 µg·h/mL | 6740 ng/mL | 3.94 h | 465 min | 27.22 ± 1.33 g | essentially the same food intake as the blank group
2 | [2H]C([2H])([2H])Oc1cn([C@@H](CC)C(=O)Nc2ccc(C(=O)NC)c(F)c2)c(=O)cc1-c1cc(Cl)ccc1-n1cc(C(F)(F)F)nn1 [Compound 25, (S)-4-(2-(4-(5-chloro-2-(4-(trifluoromethyl)-1H-1,2,3-triazol-1-yl)phenyl)-5-(methoxy-d3)-2-oxopyridin-1(2H)-yl)butanamido)-2-fluoro-N-methylbenzamide] | 76.7% | 158.5% | less than 1 µM | 1.87 nM | 159 µg·h/mL | 26500 ng/mL | 2.3 h | 114 min | 27.00 ± 1.42 g | essentially the same food intake as the blank group
3 | [2H]C([2H])([2H])NC(=O)c1ccc(NC(=O)[C@H](CC)n2cc(OC)c(-c3cc(Cl)ccc3-n3cc(C(F)(F)F)nn3)cc2=O)cc1F [Compound 26, (S)-4-(2-(4-(5-chloro-2-(4-(trifluoromethyl)-1H-1,2,3-triazol-1-yl)phenyl)-5-(methoxy)-2-oxopyridin-1(2H)-yl)butanamido)-2-fluoro-N-(methyl-d3)benzamide] | 78.3% | 159.5% | less than 1 µM | 1.15 nM | 129 µg·h/mL | 21000 ng/mL | 2.7 h | 200 min | 26.49 ± 1.21 g | essentially the same food intake as the blank group
4 | [2H]C([2H])([2H])NC(=O)c1ccc(NC(=O)[C@H](CC)n2cc(OC([2H])([2H])[2H])c(-c3cc(Cl)ccc3-n3cc(C(F)(F)F)nn3)cc2=O)cc1F [Compound 27, (S)-4-(2-(4-(5-chloro-2-(4-(trifluoromethyl)-1H-1,2,3-triazol-1-yl)phenyl)-5-(methoxy-d3)-2-oxopyridin-1(2H)-yl)butanamido)-2-fluoro-N-(methyl-d3)benzamide] | 79.7% | 142.5% | less than 1 µM | 2.98 nM | 291 µg·h/mL | 27200 ng/mL | 4.43 h | 241 min | 27.08 ± 1.19 g | essentially the same food intake as the blank group
